Earlier results, collected in patent US20250066696A1, “A STABLE BLEACH COMPOSITION” (Conopco Inc., d/b/a UNILEVER, priority 2021, published 2025).

## CCCCC(C)CCC(=O)O (stereo not shown) [4-methyl octanoic acid]
  pKa: 5.23
